Data set [1] can be described thus: In vitro release of drug combinations from liquid poly(sebacic-ricinoleic ester anhydride). It is filed as physicochemical. The conditions noted are these: for release in combination compared with the drug alone: 1:1 w/w mixture of cisplatin or carboplatin with paclitaxel. An excerpt: The combination of two or more anticancer agents in the polymer implant was investigated. The release of a combination of drugs from liquid formulations of poly(sebacic-ricinoleic ester anhydride) was studied using a 1:1 w/w mixture of cisplatin or carboplatin with paclitaxel.

For data set [2] the following is noted: intravenous injection, cited from earlier work.
Data set [3] in a line: Release of peptides from liquid poly(SA-RA) 30:70. The format is physicochemical. The settings on record: 200 mg in 800 mg poly(SA-RA) 30:70, phosphate buffer pH7.4, 37°C. As to the method:
Insulin powder (200 mg) was mixed in liquid poly(SA-RA) 30:70 (800 mg) at room temperature. The uniform formulation was added in buffer solution (100 mg in 50 ml phosphate buffer pH7.4 at 37° C.) and the release of insulin to the solution was determined by HPLC. A constant release of insulin for more than 30 days was obtained.

Take `N.N.O=C([O-])C1(C(=O)[O-])CCC1.[Pt+2]` [carboplatin]: the “release in combination compared with the drug alone” value in data set [1] is “slower”.
The same measure, in the same setting: the same measure for `N.N.[Cl][Pt][Cl]` [cisplatin]: “slower”.
On to `CC(=O)O[C@H]1C(=O)[C@@]2(C)[C@H]([C@H](OC(=O)c3ccccc3)[C@]3(O)C[C@H](OC(=O)[C@H](O)[C@@H](NC(=O)c4ccccc4)c4ccccc4)C(C)=C1C3(C)C)[C@]1(OC(C)=O)CO[C@@H]1C[C@@H]2O` [paclitaxel], for which the “release in combination compared with the drug alone” value in data set [1] was “slightly enhanced”. In addition, the “maximum tolerated dose (MTD)” value in data set [2] (female SPF C3H/HeNcrj mice) is recorded as 26 mg/kg. In addition, the “dose at which death due to toxicity was observed” value in data set [2] (mice) is on record as 30 mg/kg.
Take “Insulin: Insulin powder mixed in liquid poly(SA-RA) 30:70”: the “duration of constant release” value in data set [3] is reported as “more than 30 days”.
With rapamycine, in data set [1] (incorporated along with paclitaxel or other anticancer agents), the “release of co-incorporated drug from the device” value is on record as “released constantly”.
